For one data set, the system named is A431 skin cancer cells. The data set is described as follows: MTT in vitro cytotoxicity assay, A431. The format is cell-based. The note with it: 72 h drug exposure, n = 3, read-out: GI50 ± SEM, A431. Here is the method:
(§1) The in vitro cytotoxicity assays were undertaken at Calvary Mater Hospital, Waratah, NSW, Australia, following a method previously published in the literature. A stock solution for each compound was prepared in DMSO (30 mM) and stored at −20 °C. The cell lines used in the study include HT29 colon, U87 glioblastoma, MCF-7 breast, A2780 ovarian, H460 lung, A431 skin, Du145 prostate, BE2-C neuroblastoma, SJ-G2 glioblastoma, MIA pancreas, and cisplatin-resistant ADDP ovarian (subclone of A2780) cancer cells, as well as the non-cancerous-derived MCF10A breast cell line. The cancer cell lines were cultured in a humidified atmosphere 5% CO2 at 37 °C and maintained in Dulbecco’s modified Eagle’s medium (Trace Biosciences, Sydney, Australia), supplemented with 10% foetal bovine serum, sodium bicarbonate (10 mM), penicillin (100 IU/mL), streptomycin (100 µg/mL), and glutamine (4 mM). The non-cancerous MCF10A cell line was maintained in DMEM:F12 (1:1) cell culture media, with 5% heat inactivated horse serum, supplemented with penicillin (50 IU/mL), streptomycin (50 µg/mL), glutamine (2 mM), HEPES (20 mM), epidermal growth factor (20 ng/mL), hydrocortisone (500 ng/mL), cholera toxin (100 ng/mL), and insulin (10 µg/mL). Cells were plated in duplicate in medium (100 µL) at a density of 2500–4000 cells per well in 96-well plates. On day 0, (24 h after plating) when the cells were in logarithmic growth, medium (100 μL) with or without the test agent was added to each well. The growth inhibitory effects were evaluated after 72 h drug exposure, using the MTT (3-(4,5-dimethylthiazol-2-yl)-2,5-diphenyltetrazolium bromide) assay, with the absorbance read at 540 nm. An eight-point dose–response curve was produced, which was used to determine the concentration at which growth was inhibited by 50% (GI50). This calculation was based on the difference between the optical density values on day 0 and those at the end of drug exposure. […] Experiments were conducted on three separate occasions and GI50 values were reported as the mean and standard error of the mean.

For data set [1], the system named is panel of cancer cell lines. As to the kind of experiment: MTT cytotoxicity averaged across the panel of cancer cell lines. Type of data set: cell-based.
The subject of data set [2] is non-cancerous MCF10A breast cell line. As to the kind of experiment: MTT in vitro cytotoxicity assay, MCF10A. Type of data set: cell-based. The note with it: 72 h drug exposure, n = 3, read-out: GI50 ± SEM, MCF10A. As to the method: as §1
The test system of a further data set is U87 glioblastoma cells. As to the kind of experiment: MTT in vitro cytotoxicity assay, U87. Type of data set: cell-based. The note with it: 72 h drug exposure, n = 3, read-out: GI50 ± SEM, U87. As to the method: as §1
The test system of a further data set is H460 lung cancer cells. As to the kind of experiment: MTT in vitro cytotoxicity assay, H460. The format is cell-based. The note with it: 72 h drug exposure, n = 3, read-out: GI50 ± SEM, H460. Here is the method: as §1
Data set [3] can be described thus: Reduction study with ascorbic acid via 1H NMR. The format is physicochemical. The note with it: 5 mM complex in D2O with 10X PBS, ascorbic acid 5 mM, 37 °C, four experiments. As to the method:
To confirm that the reduction of these prodrugs occurs and the axially bound biotin ligands are released from the cytotoxic platinum(II) core, reduction studies were undertaken using ^1H NMR experiments for 3. The complex was prepared in 5 mM D2O with 10X PBS. Ascorbic acid (5 mM) was added, and the reduction was monitored at 37 °C by ^1H NMR experiments. Over time, the resonances corresponding to the platinum(IV) species decreased, while new resonances corresponding to the platinum(II) species increased (Figure 7).

Data set [4] relates to MCF-7 (breast cancer) cells. The data set is described as follows: Cellular platinum uptake by ICP-MS, MCF-7. Type of data set: cell-based. The note with it: 0.1 µM, 4 h, ICP-MS. As to the method: (§2) Cellular uptake studies were carried out in MCF-7 (breast cancer) and MCF10A (healthy breast) cell lines. Reported in Table S2 are the numbers of cells per well that were seeded onto 12-well plates for each replicate and cell line. After incubating overnight at 37 °C, the cell culture medium was replaced with fresh media containing the test compounds at concentrations of 1.0 and 0.1 µM. After incubating for 4 h, the medium was removed, the cells were washed with PBS twice, and then incubated with trypsin solution until the cells dissociated from the plate. The harvested cells were then placed into an Eppendorf tube and PBS was added to a volume of 1 mL. Cell numbers were determined using trypan blue staining. Cell pellets were obtained after centrifugation and the cells were dispersed in 50 µL of MilliQ™ water and stored immediately at −20 °C until platinum analysis was conducted. These experiments were repeated in triplicate on three separate occasions.
Sixty-nine percent HNO3 (50 µL) was added to each sample and digested at 80 °C for 1.5 h, before being taken up to 1 mL with H2O. The platinum analysis was conducted using a PerkinElmer (Melbourne, Australia) NexION™ 300X inductively coupled plasma mass spectrometer (ICP-MS). A four-point calibration curve was produced by serial dilution of a certified platinum reference standard. The calibration was linear over the working range (R^2 > 0.9999) and the most abundant platinum isotope (m/z = 195) was monitored. The average values for three independent experiments were reported with standard deviations.

The subject of data set [5] is MCF10A (healthy breast) cells. The data set is described as follows: Cellular platinum uptake by ICP-MS, MCF10A. Particulars: 1.0 and 0.1 µM, 4 h, among complexes 1–4. The format is cell-based. As to the method: as §2
Sixty-nine percent HNO3 (50 µL) was added to each sample and digested at 80 °C for 1.5 h, before being taken up to 1 mL with H2O. The platinum analysis was conducted using a PerkinElmer (Melbourne, Australia) NexION™ 300X inductively coupled plasma mass spectrometer (ICP-MS). […] The calibration was linear over the working range (R^2 > 0.9999) and the most abundant platinum isotope (m/z = 195) was monitored. […]

In data set [6] the test system is ADDP (subclone of A2780) versus A2780 ovarian cancer cell lines. As to the kind of experiment: Resistance factor, GI50 in ADDP/GI50 in A2780. The format is cell-based.

Where “and” joins values, the source holds several entries; their conditions need not be identical. Equal entries are not always repeated.

Consider `COc1cc[n+]2c3c1ccc1c(OC)cc[n+](c13)[Pt-2]21([OH])([O]C(=O)CCCC[C@@H]2SC[C@@H]3NC(=O)N[C@@H]32)[NH2+][C@H]2CCCC[C@@H]2[NH2+]1.O=[N+]([O-])[O-].O=[N+]([O-])[O-]` [Complex 3, [Pt(4,7-dimethoxy-1,10-phenanthroline)(1S,2S-diaminocyclohexane)(biotin)(hydroxido)](NO3)2], for which the concentration for 50% growth inhibition (GI50) with A431 skin cancer cells is 0.82 ± 0.22 µM; in data set [1] (calculated from the panel of cancer cell lines tested (Table S4)), 0.459 µM; in data set [2], 0.3 ± 0.08 µM; in the data set with U87 glioblastoma cells, 0.32 ± 0.06 µM; in the data set on H460 lung cancer cells it was 0.27 ± 0.03 µM. Also, the “enhanced activity compared to platinum(II) precursor across the cancer cell lines” value in [1] (across all cancer cell lines) is recorded as ~ 1.3 fold. For the same compound, in [1] (average over cancer cell lines), the “fold more active than cisplatin, on average, against all cancer cells” value was determined as 8 fold. In data set [3], the reduction half-life is ~ 30 ± 7 min and ~ 30 min. In addition, the “cellular platinum uptake in MCF-7” value in data set [4] was “greatest uptake”. The “fold greater uptake in MCF-7 compared to MCF10A” value in [4] is given as approximately 3 fold. For the same compound, the “cellular platinum uptake in MCF10A (rank)” value in data set [5] was “lowest uptake levels”. The “Resistance factor (RF)” value in data set [6] is 0.459 and 0.46.

Source of the values: PMC9853328, “Potent Platinum(IV) Prodrugs That Incorporate a Biotin Moiety to Selectively Target Cancer Cells” (Pharmaceutics, 2022).
